The source of these data is US8574563B2 (Bristol-Myers Squibb Company, priority 2006, dated 2013).

Each structure is given as a SMILES string.

This assay relates to HCV 1b-377-neo replicon cells. The experiment in a line: HCV replicon assay, HCV 1b-377-neo replicon cells (1b FRET). The class given is cell-based, Hepatitis C virus genotype 1b. As to conditions: Hepatitis C virus, HCV 1b-377-neo replicon cells; HCV 1b genotype; read-out: EC50 range against HCV 1b (Table 2, Range). A digest of the protocol: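 FRET-based replicon assay in HCV 1b-377-neo cells, including a comparison line carrying the NS5A Y2065H mutation that confers resistance to a reference compound.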

Regarding `CC(=O)NCCC(=O)N1CCC[C@H]1c1ncc(-c2ccc(-c3ccc(-c4cnc([C@@H]5CCCN5C(=O)CCNC(C)=O)[nH]4)cc3)cc2)[nH]1` [cj-134, N-(3-((2S)-2-(5-(4′-(2-((2S)-1-(3-acetamidopropanoyl)-2-pyrrolidinyl)-1H-imidazol-5-yl)-4-biphenylyl)-1H-imidazol-2-yl)-1-pyrrolidinyl)-3-oxopropyl)acetamide], the EC50 was 1 to 99 nM. Regarding `COC(=O)N[C@H](CCc1ccccc1)CC(=O)N1CCC[C@H]1c1ncc(-c2ccc(-c3ccc(-c4cnc([C@@H]5CCCN5C(=O)C[C@@H](CCc5ccccc5)NC(=O)OC)[nH]4)cc3)cc2)[nH]1` [cj-135, dimethyl (4,4′-biphenyldiylbis(1H-imidazole-5,2-diyl(2S)-2,1-pyrrolidinediyl((3R)-1-oxo-5-phenyl-1,3-pentanediyl)))biscarbamate], the EC50 fell in the range of 1 to 99 nM.

Consider `COC(=O)N[C@H](CC(=O)N1CCC[C@H]1c1ncc(-c2ccc(-c3ccc(-c4cnc([C@@H]5CCCN5C(=O)C[C@H](Cc5cccs5)NC(=O)OC)[nH]4)cc3)cc2)[nH]1)Cc1cccs1` [cj-136, dimethyl (4,4′-biphenyldiylbis(1H-imidazole-5,2-diyl(2S)-2,1-pyrrolidinediyl((2R)-4-oxo-1-(2-thienyl)-4,2-butanediyl)))biscarbamate], for which the concentration giving a half-maximal response (EC50) lay in the range of 0.001 to 0.999 nM.

For the compound `COC(=O)N[C@@H](CC(=O)N1CCC[C@H]1c1ncc(-c2ccc(-c3ccc(-c4cnc([C@@H]5CCCN5C(=O)C[C@@H](Cc5ccsc5)NC(=O)OC)[nH]4)cc3)cc2)[nH]1)Cc1ccsc1` [cj-137, dimethyl (4,4′-biphenyldiylbis(1H-imidazole-5,2-diyl(2S)-2,1-pyrrolidinediyl((2R)-4-oxo-1-(3-thienyl)-4,2-butanediyl)))biscarbamate], the EC50 fell in the range of 1 to 99 nM.

For the compound `COC(=O)N[C@@H](CC(=O)N1CCC[C@H]1c1ncc(-c2ccc(-c3ccc(-c4cnc([C@@H]5CCCN5C(=O)C[C@@H](Cc5cccs5)NC(=O)OC)[nH]4)cc3)cc2)[nH]1)Cc1cccs1` [cj-138, dimethyl (4,4′-biphenyldiylbis(1H-imidazole-5,2-diyl(2S)-2,1-pyrrolidinediyl((2S)-4-oxo-1-(2-thienyl)-4,2-butanediyl)))biscarbamate], the concentration giving a half-maximal response (EC50) is 1000 to 10000 nM.

Turning to `COC(=O)N[C@@H]1CCCC[C@H]1C(=O)N1CCC[C@H]1c1ncc(-c2ccc(-c3ccc(-c4cnc([C@@H]5CCCN5C(=O)[C@@H]5CCCC[C@H]5NC(=O)OC)[nH]4)cc3)cc2)[nH]1` [cj-139, dimethyl (4,4′-biphenyldiylbis(1H-imidazole-5,2-diyl(2S)-2,1-pyrrolidinediylcarbonyl(1R,2R)-2,1-cyclohexanediyl))biscarbamate], the EC50 is 1 to 99 nM.

Regarding `CN(C)CC[C@H](NC(=O)OC(C)(C)C)C(=O)N1CCC[C@H]1c1ncc(-c2ccc(-c3ccc(-c4cnc([C@@H]5CCCN5C(=O)[C@H](CCN(C)C)NC(=O)OC(C)(C)C)[nH]4)cc3)cc2)[nH]1` [cj-140, di-tert-butyl (4,4′-biphenyldiylbis(1H-imidazole-5,2-diyl(2S)-2,1-pyrrolidinediyl((2S)-4-(dimethylamino)-1-oxo-1,2-butanediyl)))biscarbamate], the EC50 lay in the range of 100 to 999 nM. Take `COC(=O)N[C@@H]1CCCC[C@@H]1C(=O)N1CCC[C@H]1c1ncc(-c2ccc(-c3ccc(-c4cnc([C@@H]5CCCN5C(=O)[C@H]5CCCC[C@H]5NC(=O)OC)[nH]4)cc3)cc2)[nH]1` [cj-141, dimethyl (4,4′-biphenyldiylbis(1H-imidazole-5,2-diyl(2S)-2,1-pyrrolidinediylcarbonyl(1R,2S)-2,1-cyclohexanediyl))biscarbamate]: the EC50 is 1000 to 10000 nM. As for `CN(C)CC[C@H](N)C(=O)N1CCC[C@H]1c1ncc(-c2ccc(-c3ccc(-c4cnc([C@@H]5CCCN5C(=O)[C@@H](N)CCN(C)C)[nH]4)cc3)cc2)[nH]1` [cj-142, (3S,3′S)-4,4′-(4,4′-biphenyldiylbis(1H-imidazole-5,2-diyl(2S)-2,1-pyrrolidinediyl))bis(N~1~,N~1~-dimethyl-4-oxo-1,3-butanediamine)], the figure is 1000 to 10000 nM; as for `COC(=O)N[C@@H](CC(=O)N1CCC[C@H]1c1ncc(-c2ccc(-c3ccc(-c4cnc([C@@H]5CCCN5C(=O)C[C@@H](Cc5ccccc5)NC(=O)OC)[nH]4)cc3)cc2)[nH]1)Cc1ccccc1` [cj-143, dimethyl (4,4′-biphenyldiylbis(1H-imidazole-5,2-diyl(2S)-2,1-pyrrolidinediyl((2R)-4-oxo-1-phenyl-4,2-butanediyl)))biscarbamate], 1000 to 10000 nM. The result for `COC(=O)N[C@@H]1CC[C@H](C(=O)N2CCC[C@H]2c2ncc(-c3ccc(-c4ccc(-c5cnc([C@@H]6CCCN6C(=O)[C@H]6CC[C@@H](NC(=O)OC)C6)[nH]5)cc4)cc3)[nH]2)C1` [cj-144, dimethyl (4,4′-biphenyldiylbis(1H-imidazole-5,2-diyl(2S)-2,1-pyrrolidinediylcarbonyl(1R,3S)-3,1-cyclopentanediyl))biscarbamate] reads 0.001 to 0.999 nM. In the case of `COC(=O)N[C@H](Cc1ccccc1)C(=O)N1CCC[C@H]1c1ncc(-c2ccc(-c3ccc(-c4cnc([C@@H]5CCCN5C(=O)[C@@H](Cc5ccccc5)NC(=O)OC)[nH]4)cc3)cc2)[nH]1` [cj-145, methyl ((1R)-1-benzyl-2-((2S)-2-(5-(4′-(2-((2S)-1-((2R)-2-((methoxycarbonyl)amino)-3-phenylpropanoyl)-2-pyrrolidinyl)-1H-imidazol-5-yl)-4-biphenylyl)-1H-imidazol-2-yl)-1-pyrrolidinyl)-2-oxoethyl)carbamate], the EC50 is 1 to 99 nM. As for `COC(=O)N[C@@H](CCN(C)C)C(=O)N1CCC[C@H]1c1ncc(-c2ccc(-c3ccc(-c4cnc([C@@H]5CCCN5C(=O)[C@H](CCN(C)C)NC(=O)OC)[nH]4)cc3)cc2)[nH]1` [cj-146, dimethyl (4,4′-biphenyldiylbis(1H-imidazole-5,2-diyl(2S)-2,1-pyrrolidinediyl((2S)-4-(dimethylamino)-1-oxo-1,2-butanediyl)))biscarbamate], the figure is 100 to 999 nM; as for `CN(C)[C@H](Cc1ccccc1)C(=O)N1CCC[C@H]1c1ncc(-c2ccc(-c3ccc(-c4cnc([C@@H]5CCCN5C(=O)[C@@H](Cc5ccccc5)N(C)C)[nH]4)cc3)cc2)[nH]1` [cj-147, (2R,2′R)-1,1′-(4,4′-biphenyldiylbis(1H-imidazole-5,2-diyl(2S)-2,1-pyrrolidinediyl))bis(N,N-dimethyl-1-oxo-3-phenyl-2-propanamine)], 1 to 99 nM. As for `COC(=O)N[C@@H](Cc1ccccc1)C(=O)N1CCC[C@H]1c1ncc(-c2ccc(-c3ccc(-c4cnc([C@@H]5CCCN5C(=O)[C@H](Cc5ccccc5)NC(=O)OC)[nH]4)cc3)cc2)[nH]1` [cj-148, methyl ((1S)-1-benzyl-2-((2S)-2-(5-(4′-(2-((2S)-1-((2S)-2-((methoxycarbonyl)amino)-3-phenylpropanoyl)-2-pyrrolidinyl)-1H-imidazol-5-yl)-4-biphenylyl)-1H-imidazol-2-yl)-1-pyrrolidinyl)-2-oxoethyl)carbamate], the figure is 1 to 99 nM; as for `COC(=O)N[C@H]1CC[C@@H](C(=O)N2CCC[C@H]2c2ncc(-c3ccc(-c4ccc(-c5cnc([C@@H]6CCCN6C(=O)[C@H]6CC[C@@H](NC(=O)OC)CC6)[nH]5)cc4)cc3)[nH]2)CC1` [cj-150, dimethyl (4,4′-biphenyldiylbis(1H-imidazole-5,2-diyl(2S)-2,1-pyrrolidinediylcarbonylcis-4,1-cyclohexanediyl))biscarbamate], 1 to 99 nM; as for `COC(=O)N[C@H]1CC[C@H](C(=O)N2CCC[C@H]2c2ncc(-c3ccc(-c4ccc(-c5cnc([C@@H]6CCCN6C(=O)[C@H]6CC[C@H](NC(=O)OC)CC6)[nH]5)cc4)cc3)[nH]2)CC1` [cj-151, dimethyl (4,4′-biphenyldiylbis(1H-imidazole-5,2-diyl(2S)-2,1-pyrrolidinediylcarbonyltrans-4,1-cyclohexanediyl))biscarbamate], 1 to 99 nM. As for `CCN(CC)[C@H]1CC[C@@H](C(=O)N2CCC[C@H]2c2ncc(-c3ccc(-c4ccc(-c5cnc([C@@H]6CCCN6C(=O)[C@H]6CC[C@@H](N(CC)CC)CC6)[nH]5)cc4)cc3)[nH]2)CC1` [cj-152], the figure is 1 to 99 nM. `COC(=O)N[C@@H](Cc1cscn1)C(=O)N1CCC[C@H]1c1ncc(-c2ccc(-c3ccc(-c4cnc([C@@H]5CCCN5C(=O)[C@H](Cc5cscn5)NC(=O)OC)[nH]4)cc3)cc2)[nH]1` [cj-153, methyl ((1S)-2-((2S)-2-(5-(4′-(2-((2S)-1-((2S)-2-((methoxycarbonyl)amino)-3-(1,3-thiazol-4-yl)propanoyl)-2-pyrrolidinyl)-1H-imidazol-5-yl)-4-biphenylyl)-1H-imidazol-2-yl)-1-pyrrolidinyl)-2-oxo-1-(1,3-thiazol-4-ylmethyl)ethyl)carbamate]: the half-maximal effective concentration (EC50) lay in the range of 0.001 to 0.999 nM. As for `COC(=O)N[C@@H](Cc1cn(Cc2ccccc2)cn1)C(=O)N1CCC[C@H]1c1ncc(-c2ccc(-c3ccc(-c4cnc([C@@H]5CCCN5C(=O)[C@H](Cc5cn(Cc6ccccc6)cn5)NC(=O)OC)[nH]4)cc3)cc2)[nH]1` [cj-154, methyl ((1S)-2-((2S)-2-(5-(4′-(2-((2S)-1-((2S)-3-(1-benzyl-1H-imidazol-4-yl)-2-((methoxycarbonyl)amino)propanoyl)-2-pyrrolidinyl)-1H-imidazol-5-yl)-4-biphenylyl)-1H-imidazol-2-yl)-1-pyrrolidinyl)-1-((1-benzyl-1H-imidazol-4-yl)methyl)-2-oxoethyl)carbamate], the figure is 0.001 to 0.999 nM; as for `COC(=O)N[C@H]1CCC[C@@H]1C(=O)N1CCC[C@H]1c1ncc(-c2ccc(-c3ccc(-c4cnc([C@@H]5CCCN5C(=O)[C@H]5CCC[C@@H]5NC(=O)OC)[nH]4)cc3)cc2)[nH]1` [cj-155, dimethyl (4,4′-biphenyldiylbis(1H-imidazole-5,2-diyl(2S)-2,1-pyrrolidinediylcarbonyl(1S,2S)-2,1-cyclopentanediyl))biscarbamate], 1 to 99 nM.
